“And” between values parts separate entries of the source, which are not always exact repeats. Equal entries are not always repeated. Structures can show the parent of a compound that is named as a salt.
Key:
[1] = system: experimental acute pancreatitis model; experiment: Effects against acute pancreatitis (Test Example 7, closed duodenal loop method, gross pathological examination); assay type: in vivo, Crj-CD male rats; set-up: key: -: No significant lesions; ±: Minimal; +: Light; ++: Moderate; +++: Marked; conditions: 40 mg per kg continuous intravenous injection, examination 3 hours after ventrotomy, individual rats
Description: (§1) Using Crj-CD male rats (for Compound No. 19, rats having a body weight of from 371 to 484 g were used, and for Compound No. 10, rats having a body weight of from 444 to 574 g were used), each test group consisted of 3 rats. An experimental acute pancreatitis model was prepared by a closed duodenal loop method under anesthesia with halothane (manufactured by Hoechst Japan) and nitrous oxide (manufactured by Sumitomo Seika K.K.) applied by means of a general inhalation anesthesia machine (Model EM-2 and halothane evaporator F-Model). Then, Compound No. 19 or Compound No. 10 was continuously intravenously injected into the tail vein in an amount of 50 mg per kg or 40 mg per kg, respectively, at a rate of 0.05 ml per minute by means of a pump (Technicon AA II Proportioning Pump III, manufactured by Technicon Instruments Corporation). No injection was made to a control group. Gross pathological examination was conducted upon expiration of 6 hours after the ventrotomy in the case of the test group to which Compound No. 19 was administered, or upon expiration of 3 hours after the ventrotomy in the case of the test group to which Compound No. 10 was administered. As a result, as shown in the following Table 12, the groups to which the compounds of the present invention were administered, show distinct usefulness for treating acute pancreatitis.

[2] = system: experimental acute pancreatitis model; experiment: as above; assay type: in vivo, Crj-CD male rats; set-up: key to Pancreatic edema Distribution: -: No significant lesions; ± ∼ +++: Focal-diffuse; ± ∼ +++: Focal-diffuse; ± ∼ +++: Focal-diffuse; ± ∼ +++: Focal-diffuse; key to Pancreatic hemorrhage Petechia Grade / Pancreatic edema Grade: -: No significant lesions; ±: Minimal; +: Light; ++: Moderate; +++: Marked; conditions: 40 mg per kg continuous intravenous injection, examination 3 hours after ventrotomy, individual rats
Description: as §1

ddy male mice = experiment: Acute toxicity, intravenous injection (LD50); assay type: in vivo; conditions: sodium salt, mortality over one week, 10080 min
Description: Administration route: Intravenous injection
Using ddy male mice (body weight: 25 - 30 g), each test group consisted of 5 mice. A test compound was dissolved in the form of a sodium salt in a physiological saline or in a 5% glucose aqueous solution, and intravenously injected in an amount of 0.1 ml/10 g body weight. After the injection, the mortality rate was obtained over one week, and the median lethal dose LD50 (mg/kg) was determined.

Compound: CS(=O)(=O)Nc1ncc(C(F)(F)F)cc1NC(=O)c1ccc(F)cc1 [Compound No. 10, N-(2-methylsulfonylamino-5-trifluoromethyl-3-pyridyl)-4-fluorobenzamide]
- Pancreatic hemorrhage Petechia Distribution [1]: -
- Pancreatic edema Distribution [2]: ± and + (2×)
- Pancreatic edema Grade [2]: ± and + and ††
- Pancreatic hemorrhage Petechia Grade [2]: ± and - and +

Compound: CCS(=O)(=O)Nc1ncc(C(F)(F)F)cc1NC(=O)C1CCCCC1 [Compound No. 251, sodium salt of N-(2-ethylsulfonylamino-5-trifluoromethyl-3-pyridyl)cyclohexanecarboxamide]
- LD50 (ddy male mice): 65 mg/kg
